Measurements: patent US20120034613A1, “Apparatus and Method for Testing Relationships Between Gene Expression and Physical Appearance of Skin” (NSE Products, Inc., priority 2010, published 2012)

System: EpidermFT™ Skin Model (EFT-400) full thickness skin cultures
Assay: Affymetrix GeneChip HG U133 Plus 2.0 microarray global gene expression, agent-exposed vs untreated skin cultures
Format: cell-based, human
Settings: 24 hr; for Direction / Fold change: Salicin 0.5%
[1] = Salicin 0.5% vs Untreated Control

For `OCc1ccccc1O[C@@H]1O[C@H](CO)[C@@H](O)[C@H](O)[C@H]1O` [Salicin, 2-(Hydroxymethyl)phenyl β-D-glucospyranoside], the Direction (1554602_at RBM8A) was “up”, the Fold change (1554602_at RBM8A) was 2.141 and the Direction (1555270_a_at WFS1) was “up”. The Fold change (1555270_a_at WFS1) was 2.096, the Direction (1559477_s_at MEIS1) was “up” and the Fold change (1559477_s_at MEIS1) was 2.098. The Direction (1561042_at ITGB1) was “up”, the Fold change (1561042_at ITGB1) was 2.151 and the “Direction ABCD3 (202850_at)” value [1] was “down”. For the same molecule, the “Direction ABCG4 (207593_at)” value [1] was “down”, the “Direction ACACA (212186_at)” value [1] was “down” and the “Direction ACAD9 (224160_s_at)” value [1] was “down”. The “Direction ACOX3 (204241_at)” value [1] was “down”, the “Direction ADAMTSL4 (226071_at)” value [1] was “down” and the “Direction ADARB1 (203865_s_at)” value [1] was “down”. The “Direction AHNAK (211986_at)” value [1] was “down”, the “Direction AIF1L (223075_s_at)” value [1] was “down” and the “Direction AK1 (202587_s_at)” value [1] was “down”. The “Direction AK3L1 /// AK3L2 (204347_at)” value [1] was “down”, the “Direction ALDH5A1 (203609_s_at)” value [1] was “down” and the “Direction ALOX12 (207206_s_at)” value [1] was “down”. The “Direction AMACR (209426_s_at)” value [1] was “down”, the “Direction AMOTL2 (203002_at)” value [1] was “down” and the “Direction ANK3 (207950_s_at)” value [1] was “down”. The “Direction APPL2 (218218_at)” value [1] was “down”, the “Direction AQP3 (203747_at)” value [1] was “down” and the “Direction ARHGAP27 (225618_at)” value [1] was “down”. The “Direction ARL17 /// ARL17P1 (1555964_at)” value [1] was “down”, the “Direction ARPC1A (200950_at)” value [1] was “down” and the “Direction ASAP3 (222236_s_at)” value [1] was “down”. The “Direction ATP2B4 (212136_at)” value [1] was “down”, the “Direction ATXN3 (205416_s_at)” value [1] was “down” and the “Direction BAIAP2 (205293_x_at)” value [1] was “down”. The “Direction BCL11A (1559078_at)” value [1] was “down”, the “Direction BCL11B (222895_s_at)” value [1] was “down” and the “Direction BICD2 (1553021_s_at)” value [1] was “down”. For the same molecule, the “Direction BLCAP (201032_at)” value [1] was “down”, the “Direction C1orf46 (216718_at)” value [1] was “down” and the “Direction C1orf71 (225551_at)” value [1] was “down”. For the same molecule, the “Direction C1orf97 (224443_at)” value [1] was “down”, the “Direction C2orf7 (223312_at)” value [1] was “down” and the “Direction C4orf3 (224605_at)” value [1] was “down”. The “Direction C6orf105 (215100_at)” value [1] was “down”, the “Direction C12orf29 (228378_at)” value [1] was “down” and the “Direction C15orf52 (227272_at)” value [1] was “down”. The “Direction C17orf67 (236863_at)” value [1] was “down”, the “Direction C20orf177 (225313_at)” value [1] was “down” and the “Direction CALM1 /// CALM2 /// CALM3 (200653_s_at)” value [1] was “down”. For the same molecule, the “Direction CALM1 /// CALM2 /// CALM3 (209563_x_at)” value [1] was “down”, the “Direction CAT (211922_s_at)” value [1] was “down” and the “Direction CENPT (218148_at)” value [1] was “down”. For the same molecule, the “Direction CEP76 (52285_f_at)” value [1] was “down”, the “Direction CERK (218421_at)” value [1] was “down” and the “Direction CKB (200884_at)” value [1] was “down”. For the same molecule, the “Direction CLCN5 (232127_at)” value [1] was “down”, the “Direction CLDN7 (202790_at)” value [1] was “down” and the “Direction CLIP1 (1558924_s_at)” value [1] was “down”. The “Direction CLN8 (229958_at)” value [1] was “down”, the “Direction CNDP2 (217752_s_at)” value [1] was “down” and the “Direction CNTN1 (211203_s_at)” value [1] was “down”. The “Direction CSNK2A2 (203575_at)” value [1] was “down”, the “Direction CTAGE4 (215549_x_at)” value [1] was “down” and the “Direction CXCL12 (203666_at)” value [1] was “down”. For the same molecule, the “Direction CYB5R1 (202263_at)” value [1] was “down”, the “Direction CYCS (244546_at)” value [1] was “down” and the “Direction DBI (211070_x_at)” value [1] was “down”. The “Direction DDR1 (1007_s_at)” value [1] was “down”, the “Direction DDX50 (1568815_a_at)” value [1] was “down” and the “Direction DHRS4 /// DHRS4L2 (218021_at)” value [1] was “down”. The “Direction DMD (203881_s_at)” value [1] was “down”, the “Direction DOPEY2 (205248_at)” value [1] was “down” and the “Direction ELOVL3 (234513_at)” value [1] was “down”. For the same molecule, the “Direction EPCAM (201839_s_at)” value [1] was “down”, the “Direction EPHB4 (202894_at)” value [1] was “down” and the “Direction EPHB6 (204718_at)” value [1] was “down”. The “Direction ERI2 (213365_at)” value [1] was “down”, the “Direction F2RL1 (206429_at)” value [1] was “down” and the “Direction FAM33A (225684_at)” value [1] was “down”. The “Direction FAR1 (224865_at)” value [1] was “down”, the “Direction FBXO3 (229955_at)” value [1] was “down” and the “Direction FBXO3 (238686_at)” value [1] was “down”. For the same molecule, the “Direction FBXO9 (212991_at)” value [1] was “down”, the “Direction FBXO9 (1559094_at)” value [1] was “down” and the “Direction FIGNL1 (222843_at)” value [1] was “down”. The “Direction FKBP1B (206857_s_at)” value [1] was “down”, the “Direction FKBPL (219187_at)” value [1] was “down” and the “Direction FRAG1 (41858_at)” value [1] was “down”. For the same molecule, the “Direction FUCA1 (202838_at)” value [1] was “down”, the “Direction FUT2 (210608_s_at)” value [1] was “down” and the “Direction GAB1 (225998_at)” value [1] was “down”. For the same molecule, the “Direction GAS7 (202192_s_at)” value [1] was “down”, the “Direction GDAP1 (226269_at)” value [1] was “down” and the “Direction GNG4 (205184_at)” value [1] was “down”. For the same molecule, the “Direction GPR1 (214605_x_at)” value [1] was “down”, the “Direction GPR137B (204137_at)” value [1] was “down” and the “Direction GSN (200696_s_at)” value [1] was “down”. For the same molecule, the “Direction HES5 (239230_at)” value [1] was “down”, the “Direction HIGD1A (217845_x_at)” value [1] was “down” and the “Direction HN1 (222396_at)” value [1] was “down”. For the same molecule, the “Direction HN1L (212115_at)” value [1] was “down”, the “Direction HSDL2 (209512_at)” value [1] was “down” and the “Direction ID2 (201565_s_at)” value [1] was “down”. For the same molecule, the “Direction IDH2 (210045_at)” value [1] was “down”, the “Direction IL22RA1 (220056_at)” value [1] was “down” and the “Direction INPP5D (203332_s_at)” value [1] was “down”. For the same molecule, the “Direction ITGA3 (201474_s_at)” value [1] was “down”, the “Direction JAG1 (209099_x_at)” value [1] was “down” and the “Direction JAG1 (216268_s_at)” value [1] was “down”. For the same molecule, the “Direction JMJD7 /// JMJD7-PLA2G4B /// PLA2G4B (222256_s_at)” value [1] was “down”, the “Direction KCNK7 (224055_x_at)” value [1] was “down” and the “Direction KCTD15 (222668_at)” value [1] was “down”. The “Direction KIF1B (209234_at)” value [1] was “down” and the “Direction KIF1B (225878_at)” value [1] was “down”.
